In US9242993B2, “Morpholino substituted bicyclic pyrimidine urea or carbamate derivatives as mTOR inhibitors” (CELLZOME LIMITED, priority 2011, dated 2016):

What was measured:
mTOR = mTOR (Homo sapiens, UniProt P42345); experiment: biochemical
[1] = test system: S6RP serine-240/244 phosphorylation; experiment: In vitro phospho-S6 cellular assay; format: cell-based; conditions: Homo sapiens; HEK293T/17 cells, 2 hours; read-out: pS6 inhibition value (IC50), activity level
Text: Activation of mTOR signaling results in phosphorylation of several downstream targets. In cells, mTOR exists in two different protein complexes. The mTOR Complex-1 (mTORC1) phosphorylates and activates S6 Kinase 1 (S6K1) and S6 Kinase 2 (S6K2) (also known as p70S6K) which then phosphorylate S6 Ribosomal Protein (S6RP) (also known as RPS6)3. S6RP is phosphorylated on serine 235, serine 236, serine 240 and serine 244 by both pS6K1 and pS6K2. The mTOR Complex-2 (mTORC2) phosphorylates AKT on serine 473 which activates the AKT signaling pathway.
The assay measures a test compound's inhibition of S6RP serine-240/244 phosphorylation and inhibition of Akt serine-473 phosphorylation in human embryonic kidney derived HEK293T/17 cells (ATCC CRL-11268).
The HEK293T/17 cell line is maintained in DMEM media (Invitrogen catalogue number 41965-039) supplemented with 10% FCS at 37° C. in a 5% CO2 humidified incubator.
Cells are seeded in 96-well plates at 40,000 cells/well (pS6RP S240/244 assay) or 80,000 cells/well (pAkt S473 assay) in 90 μl growth media (DMEM, 2% FCS). Plates are incubated for 1 hour in a humidified incubator to allow the cells to adhere. Cells are treated with 8 concentrations of test compounds or DMSO alone for controls (final DMSO concentration 0.1%) and incubated at 37° C. for 2 hours. Then 20 μl of 5× concentrated lysis buffer (750 mM NaCl, 100 mM Tris pH7.4, 5 mM ADTA, 5 mM EGTA, 5% Triton X-100) is added, plates are sealed and incubated for 15 minutes at 4° C. with gentle shaking. After cell lysis, 25 μl cell lysate is transferred to a MesoScale plate coated with an antibody to pS6RP Ser240/244 (MesoScale Discovery K150DGD-3) or an antibody to pAkt Ser 473 (MesoScale Discovery K151DGD-3). Plates have been blocked before by incubation with 150 μl MesoScale Discovery Blocking Solution-A for 1 hour at room temperature followed by washing with 150 μl 1× Tris wash buffer per well. After the transfer of the cell lysate to the MSD plate, the pS6RP (or pAkt) protein is captured on the coated antibody by incubation at room temperature for 1 hour with gentle shaking. After the capture step the plate is washed three times with 150 μl of 1× Tris wash buffer per well. Then 25 μl detection antibody conjugated with a Sulfo-Tag is added and incubated for 1 hour at room temperature with gentle shaking. Subsequently the antibody solution is removed and the plate is washed 3 times with 150 μl 1× Tris wash buffer per well and 150 μl Read buffer is added. The plates are analysed on a MSD 2400 Plate Reader (MesoScale Discovery). Data analysis is performed using nonlinear regression for a sigmoidal dose-response with a variable slope.

[2] = molecular target: DNA-dependent protein kinase (DNA-PK) (Homo sapiens, UniProt P78527); experiment: biochemical
Chain of DNA-dependent protein kinase (DNA-PK) (P78527 whole entry): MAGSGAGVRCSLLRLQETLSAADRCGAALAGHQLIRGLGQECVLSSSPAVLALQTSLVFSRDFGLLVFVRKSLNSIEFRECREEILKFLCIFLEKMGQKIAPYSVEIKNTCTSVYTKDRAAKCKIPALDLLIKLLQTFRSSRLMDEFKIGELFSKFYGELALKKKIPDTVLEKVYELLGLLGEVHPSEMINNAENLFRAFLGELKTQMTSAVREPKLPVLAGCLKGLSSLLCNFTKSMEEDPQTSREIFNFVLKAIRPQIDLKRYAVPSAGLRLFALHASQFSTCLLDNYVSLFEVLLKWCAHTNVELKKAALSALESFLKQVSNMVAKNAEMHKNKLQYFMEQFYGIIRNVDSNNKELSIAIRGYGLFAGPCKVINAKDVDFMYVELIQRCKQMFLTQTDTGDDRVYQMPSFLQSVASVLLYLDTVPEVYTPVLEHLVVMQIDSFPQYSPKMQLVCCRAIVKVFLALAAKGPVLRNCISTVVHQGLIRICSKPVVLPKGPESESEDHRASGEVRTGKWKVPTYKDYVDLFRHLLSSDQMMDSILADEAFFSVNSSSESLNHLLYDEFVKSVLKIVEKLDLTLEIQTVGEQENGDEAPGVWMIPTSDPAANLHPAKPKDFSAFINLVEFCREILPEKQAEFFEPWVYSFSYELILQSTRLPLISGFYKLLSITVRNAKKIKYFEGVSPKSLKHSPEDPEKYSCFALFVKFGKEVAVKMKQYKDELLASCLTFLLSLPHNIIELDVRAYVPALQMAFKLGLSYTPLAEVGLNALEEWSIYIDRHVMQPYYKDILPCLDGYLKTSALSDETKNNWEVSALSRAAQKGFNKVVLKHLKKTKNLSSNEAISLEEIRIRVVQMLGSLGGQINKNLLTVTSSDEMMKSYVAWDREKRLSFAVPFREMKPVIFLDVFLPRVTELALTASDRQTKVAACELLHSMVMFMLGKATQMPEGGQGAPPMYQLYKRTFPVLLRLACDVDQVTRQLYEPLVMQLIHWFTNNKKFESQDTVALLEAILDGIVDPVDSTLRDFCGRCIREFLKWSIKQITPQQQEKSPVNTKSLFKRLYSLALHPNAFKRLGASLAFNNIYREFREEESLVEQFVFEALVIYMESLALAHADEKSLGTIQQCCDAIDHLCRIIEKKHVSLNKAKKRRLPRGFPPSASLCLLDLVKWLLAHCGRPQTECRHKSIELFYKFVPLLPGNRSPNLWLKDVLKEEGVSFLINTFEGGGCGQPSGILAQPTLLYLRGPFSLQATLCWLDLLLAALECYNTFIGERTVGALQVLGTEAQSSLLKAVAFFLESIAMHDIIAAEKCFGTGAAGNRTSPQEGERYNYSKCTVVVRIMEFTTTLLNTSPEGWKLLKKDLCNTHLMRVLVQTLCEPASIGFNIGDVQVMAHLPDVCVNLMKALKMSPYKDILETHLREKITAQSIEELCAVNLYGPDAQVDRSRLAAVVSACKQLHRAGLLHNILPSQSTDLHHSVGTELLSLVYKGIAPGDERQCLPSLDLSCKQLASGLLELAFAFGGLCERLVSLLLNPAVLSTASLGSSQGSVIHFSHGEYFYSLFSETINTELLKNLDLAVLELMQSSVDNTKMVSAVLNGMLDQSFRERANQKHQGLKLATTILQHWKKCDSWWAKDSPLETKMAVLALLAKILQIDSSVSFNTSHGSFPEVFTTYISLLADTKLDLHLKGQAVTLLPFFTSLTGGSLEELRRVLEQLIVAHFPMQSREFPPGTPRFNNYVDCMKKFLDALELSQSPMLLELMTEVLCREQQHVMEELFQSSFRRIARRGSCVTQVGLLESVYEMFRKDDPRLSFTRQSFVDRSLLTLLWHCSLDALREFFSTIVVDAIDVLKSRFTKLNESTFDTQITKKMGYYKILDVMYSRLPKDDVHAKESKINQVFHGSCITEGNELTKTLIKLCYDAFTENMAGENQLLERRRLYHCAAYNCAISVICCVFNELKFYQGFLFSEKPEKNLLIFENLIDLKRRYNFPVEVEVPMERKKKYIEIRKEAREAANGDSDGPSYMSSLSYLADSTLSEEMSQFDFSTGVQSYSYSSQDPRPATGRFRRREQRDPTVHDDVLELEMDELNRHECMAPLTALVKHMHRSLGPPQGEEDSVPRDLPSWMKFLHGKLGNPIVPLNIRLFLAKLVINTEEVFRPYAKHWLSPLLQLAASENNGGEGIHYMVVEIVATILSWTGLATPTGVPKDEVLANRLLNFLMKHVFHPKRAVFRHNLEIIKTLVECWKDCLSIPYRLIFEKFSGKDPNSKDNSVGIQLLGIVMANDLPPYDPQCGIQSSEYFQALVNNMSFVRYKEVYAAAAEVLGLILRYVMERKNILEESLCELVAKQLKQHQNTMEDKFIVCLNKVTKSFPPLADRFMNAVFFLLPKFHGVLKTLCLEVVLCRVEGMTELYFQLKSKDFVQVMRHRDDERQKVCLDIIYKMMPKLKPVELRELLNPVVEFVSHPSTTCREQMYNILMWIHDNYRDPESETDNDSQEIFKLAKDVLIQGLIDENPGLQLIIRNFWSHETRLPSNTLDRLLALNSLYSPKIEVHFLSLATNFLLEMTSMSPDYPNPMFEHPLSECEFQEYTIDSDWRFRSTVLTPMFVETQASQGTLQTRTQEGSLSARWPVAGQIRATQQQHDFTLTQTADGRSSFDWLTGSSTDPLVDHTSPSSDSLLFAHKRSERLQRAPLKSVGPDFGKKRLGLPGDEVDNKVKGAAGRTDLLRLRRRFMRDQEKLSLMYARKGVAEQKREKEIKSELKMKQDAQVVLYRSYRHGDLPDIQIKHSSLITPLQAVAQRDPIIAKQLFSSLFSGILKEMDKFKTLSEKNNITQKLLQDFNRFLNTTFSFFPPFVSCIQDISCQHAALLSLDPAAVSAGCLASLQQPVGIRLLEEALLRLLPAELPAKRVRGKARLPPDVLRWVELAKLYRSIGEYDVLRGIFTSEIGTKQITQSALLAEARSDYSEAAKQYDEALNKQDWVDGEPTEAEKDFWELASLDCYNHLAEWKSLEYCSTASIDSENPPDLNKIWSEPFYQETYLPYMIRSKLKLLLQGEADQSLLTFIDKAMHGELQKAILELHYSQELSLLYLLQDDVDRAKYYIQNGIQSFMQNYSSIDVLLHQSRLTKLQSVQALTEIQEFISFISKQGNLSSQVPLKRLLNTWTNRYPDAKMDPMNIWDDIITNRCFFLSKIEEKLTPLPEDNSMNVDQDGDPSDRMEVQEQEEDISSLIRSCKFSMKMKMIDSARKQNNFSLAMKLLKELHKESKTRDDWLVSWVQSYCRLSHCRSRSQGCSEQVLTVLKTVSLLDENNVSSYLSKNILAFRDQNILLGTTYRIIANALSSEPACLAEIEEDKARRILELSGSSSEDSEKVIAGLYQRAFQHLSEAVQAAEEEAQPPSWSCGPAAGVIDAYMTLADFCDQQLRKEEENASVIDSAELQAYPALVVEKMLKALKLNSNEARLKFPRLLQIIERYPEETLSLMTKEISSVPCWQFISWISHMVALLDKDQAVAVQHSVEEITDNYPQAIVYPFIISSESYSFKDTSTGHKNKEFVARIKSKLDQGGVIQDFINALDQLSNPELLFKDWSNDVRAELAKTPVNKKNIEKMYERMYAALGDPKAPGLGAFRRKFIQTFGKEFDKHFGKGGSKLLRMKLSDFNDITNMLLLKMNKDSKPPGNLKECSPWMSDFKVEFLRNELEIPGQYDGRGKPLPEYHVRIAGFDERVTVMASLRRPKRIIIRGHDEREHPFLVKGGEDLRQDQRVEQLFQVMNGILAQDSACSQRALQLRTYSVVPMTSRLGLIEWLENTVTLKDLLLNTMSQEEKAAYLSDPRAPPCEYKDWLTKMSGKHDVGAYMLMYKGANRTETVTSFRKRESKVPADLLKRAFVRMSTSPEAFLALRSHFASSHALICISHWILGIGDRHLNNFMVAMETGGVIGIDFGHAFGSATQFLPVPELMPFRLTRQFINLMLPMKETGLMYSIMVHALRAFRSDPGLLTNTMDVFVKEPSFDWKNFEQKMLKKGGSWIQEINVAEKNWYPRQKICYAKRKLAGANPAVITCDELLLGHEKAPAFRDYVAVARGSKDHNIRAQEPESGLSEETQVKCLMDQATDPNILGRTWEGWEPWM

Row | IC50 (mTOR) [nM] | IC50 [1] [nM] | IC50 [2] [nM] | Compound
1 | < 100 | < 100 |  | CC1c2c(nc(-c3ccc(NC(=O)NC4CC4)cc3)nc2N2CCOC[C@@H]2C)CS1(=O)=O (mixture of isomers) [Example 6, 1-cyclopropyl-3-(4-(5-methyl-4-((S)-3-methylmorpholino)-6,6-dioxido-5,7-dihydrothieno[3,4-d]pyrimidin-2-yl)phenyl)urea]
2 | < 100 | < 100 |  | C[C@H]1COCCN1c1nc(-c2ccc(NC(=O)NC3CC3)cc2)nc2c1CSCC2 [Example 3, (S)-1-cyclopropyl-3-(4-(4-(3-methylmorpholino)-7,8-dihydro-5H-thiopyrano[4,3-d]pyrimidin-2-yl)phenyl)urea]
3 | < 100 | 100 to 1000 | > 10000 | C[C@H]1COCCN1c1nc(-c2ccc(NC(=O)NC3CC3)cc2)nc2c1CS(=O)(=O)CC2 [Example 4, (S)-1-cyclopropyl-3-(4-(4-(3-methylmorpholino)-6,6-dioxido-7,8-dihydro-5H-thiopyrano[4,3-d]pyrimidin-2-yl)phenyl)urea]
4 | < 100 | < 100 |  | CC1c2nc(-c3ccc(NC(=O)NC4CC4)cc3)nc(N3CCOC[C@@H]3C)c2CS1(=O)=O (stereo partly drawn) [Example 7, 1-cyclopropyl-3-(4-(7-methyl-4-((S)-3-methylmorpholino)-6,6-dioxido-5,7-dihydrothieno[3,4-d]pyrimidin-2-yl)phenyl)urea]
5 | < 100 | < 100 | > 10000 | C[C@H]1COCCN1c1nc(-c2ccc(NC(=O)NC3CC3)cc2)nc2c1SCCC2 [Example 8, (S)-1-cyclopropyl-3-(4-(4-(3-methylmorpholino)-7,8-dihydro-6H-thiopyrano[3,2-d]pyrimidin-2-yl)phenyl)urea]
6 |  | < 100 | > 10000 | CCNC(=O)Nc1ccc(-c2nc3c(c(N4CCOC[C@@H]4C)n2)CS(=O)(=O)C3)cc1 [Example 11, (S)-1-ethyl-3-(4-(4-(3-methylmorpholino)-6,6-dioxido-5,7-dihydrothieno[3,4-d]pyrimidin-2-yl)phenyl)urea]
7 | < 100 | 100 to 1000 | > 10000 | CNC(=O)Nc1ccc(-c2nc3c(c(N4CCOC[C@@H]4C)n2)CS(=O)(=O)C3)cc1 [Example 12, (S)-1-methyl-3-(4-(4-(3-methylmorpholino)-6,6-dioxido-5,7-dihydrothieno[3,4-d]pyrimidin-2-yl)phenyl)urea]
8 | < 100 | 1000 to 10000 | 1000 to 10000 | C[C@H]1COCCN1c1nc(-c2ccc(NC(=O)NCCO)cc2)nc2c1CS(=O)(=O)C2 [Example 13, (S)-1-(2-hydroxyethyl)-3-(4-(4-(3-methylmorpholino)-6,6-dioxido-5,7-dihydrothieno[3,4-d]pyrimidin-2-yl)phenyl)urea]
9 | < 100 | 100 to 1000 | > 3000 | C[C@H]1COCCN1c1nc(-c2ccc(NC(=O)NCCF)cc2)nc2c1CS(=O)(=O)C2 [Example 14, (S)-1-(2-fluoroethyl)-3-(4-(4-(3-methylmorpholino)-6,6-dioxido-5,7-dihydrothieno[3,4-d]pyrimidin-2-yl)phenyl)urea]
10 | 100 to 1000 | < 100 |  | C[C@@H]1COCCN1c1nc(-c2ccc(NC(=O)NC3CC3)cc2)nc2c1CS(=O)(=O)C2 [Example 17, (R)-1-cyclopropyl-3-(4-(4-(3-methylmorpholino)-6,6-dioxido-5,7-dihydrothieno[3,4-d]pyrimidin-2-yl)phenyl)urea]
11 | 1000 to 10000 |  |  | C[C@@H]1CN(c2nc(-c3ccc(NC(=O)NC4CC4)cc3)nc3c2CS(=O)(=O)C3)C[C@H](C)O1 [Example 19, 1-cyclopropyl-3-(4-(4-((2S,6R)-2,6-dimethylmorpholino)-6,6-dioxido-5,7-dihydrothieno[3,4-d]pyrimidin-2-yl)phenyl)urea]
12 | < 100 | 100 to 1000 |  | O=C(Nc1ccc(-c2nc3c(c(N4CC5CCC(C4)O5)n2)CS(=O)(=O)C3)cc1)NC1CC1 [Example 20, 1-(4-(4-(8-oxa-3-azabicyclo[3.2.1]octan-3-yl)-6,6-dioxido-5,7-dihydrothieno[3,4-d]pyrimidin-2-yl)phenyl)-3-cyclopropylurea]
13 | < 100 | 100 to 1000 |  | CNC(=O)Nc1ccc(-c2nc3c(c(N4CC5CCC(C4)O5)n2)CS(=O)(=O)C3)cc1 [Example 21, 1-(4-(4-(8-oxa-3-azabicyclo[3.2.1]octan-3-yl)-6,6-dioxido-5,7-dihydrothieno[3,4-d]pyrimidin-2-yl)phenyl)-3-methylurea]
14 | < 100 | 100 to 1000 |  | C[C@H]1COCCN1c1nc(-c2ccc(NC(=O)NCC(F)F)cc2)nc2c1CS(=O)(=O)C2 [Example 23, (S)-1-(2,2-difluoroethyl)-3-(4-(4-(3-methylmorpholino)-6,6-dioxido-5,7-dihydrothieno[3,4-d]pyrimidin-2-yl)phenyl)urea]
15 | 100 to 1000 | < 100 |  | O=C(NCC(F)F)Nc1ccc(-c2nc3c(c(N4CC5CCC(C4)O5)n2)CS(=O)(=O)C3)cc1 [Example 24, 1-(4-(4-(8-oxa-3-azabicyclo[3.2.1]octan-3-yl)-6,6-dioxido-5,7-dihydrothieno[3,4-d]pyrimidin-2-yl)phenyl)-3-(2,2-difluoroethyl)urea]
16 | 100 to 1000 | 100 to 1000 |  | CC(C)NC(=O)Nc1ccc(-c2nc3c(c(N4CCOC[C@@H]4C)n2)CS(=O)(=O)C3)cc1 [Example 25, (S)-1-isopropyl-3-(4-(4-(3-methylmorpholino)-6,6-dioxido-5,7-dihydrothieno[3,4-d]pyrimidin-2-yl)phenyl)urea]
17 | < 100 | < 100 |  | C[C@H]1COCCN1c1nc(-c2ccc(NC(=O)NC3CC3)cc2)nc2c1CS(=O)(=O)C2(C)C [Example 30, (S)-1-cyclopropyl-3-(4-(7,7-dimethyl-4-(3-methylmorpholino)-6,6-dioxido-5,7-dihydrothieno[3,4-d]pyrimidin-2-yl)phenyl)urea]
18 | < 100 | < 100 |  | CC1c2c(nc(-c3ccc(NC(=O)NC4CC4)cc3)nc2N2CC3CCC(C2)O3)CS1(=O)=O (stereo not drawn) [Example 34, 1-(4-(4-(8-oxa-3-azabicyclo[3.2.1]octan-3-yl)-5-methyl-6,6-dioxido-5,7-dihydrothieno[3,4-d]pyrimidin-2-yl)phenyl)-3-cyclopropylurea]
19 | < 100 |  | > 10000 | C[C@H]1COCCN1c1nc(-c2ccc(NC(=O)Nc3cccnc3)cc2)nc2c1CS(=O)(=O)C2 [Example 36, (S)-1-(4-(4-(3-methylmorpholino)-6,6-dioxido-5,7-dihydrothieno[3,4-d]pyrimidin-2-yl)phenyl)-3-(pyridin-3-yl)urea]
20 | 100 to 1000 |  | > 10000 | C[C@H]1COCCN1c1nc(-c2ccc(NC(=O)NC3CC3)cc2)nc2c1S(=O)(=O)C(C)(C)C2 [Example 37, (S)-1-cyclopropyl-3-(4-(6,6-dimethyl-4-(3-methylmorpholino)-5,5-dioxido-6,7-dihydrothieno[3,2-d]pyrimidin-2-yl)phenyl)urea]
21 | < 100 |  |  | CC1c2c(N3CCOCC3)nc(-c3ccc(NC(=O)NCCF)cc3)nc2C(C)(C)S1(=O)=O (stereo not drawn) [Example 81, 1-(2-fluoroethyl)-3-(4-(5,7,7-trimethyl-4-morpholino-6,6-dioxido-5,7-dihydrothieno[3,4-d]pyrimidin-2-yl)phenyl)urea]
22 | < 100 |  |  | C[C@@H]1c2c(N3CCOC[C@@H]3C)nc(-c3ccc(NC(=O)NC4CC4)cc3)nc2C(C)(C)S1(=O)=O [Example 82, 1-cyclopropyl-3-(4-((R)-5,7,7-trimethyl-4-((S)-3-methylmorpholino)-6,6-dioxido-5,7-dihydrothieno[3,4-d]pyrimidin-2-yl)phenyl)urea]

Row | Compound | IC50 (mTOR) [nM] | IC50 [1] [nM] | IC50 [2] [nM]
23 | CC1c2c(nc(-c3ccc(NC(=O)NC4CC4)cc3)nc2N2C3CCC2COC3)CS1(=O)=O (stereo not drawn) [Example 33, 1-(4-(4-(3-oxa-8-azabicyclo[3.2.1]octan-8-yl)-5-methyl-6,6-dioxido-5,7-dihydrothieno[3,4-d]pyrimidin-2-yl)phenyl)-3-cyclopropylurea] | < 100 | < 100 | 
